The values below come from ChEMBL document CHEMBL1125697, “Synthesis and pharmacological examination of 1-(3-methoxy-4-methylphenyl)-2-aminopropane and 5-methoxy-6-methyl-2-aminoindan: similarities to 3,4-(methylenedioxy)methamphetamine (MDMA)” (J Med Chem, 1991).

Format in all cases: functional
The test system of experiment [1] is Rattus norvegicus. Put plainly: Effective dose was evaluated for drug discrimination in I-trained rats, when given at a dose of 2.32 micro mol/kg.
The subject of experiment [2] is Rattus norvegicus. The experiment can be described thus: Effective dose was evaluated for drug discrimination in I-trained rats, when given at a dose of 0.25 mg/kg. Particulars: Rattus norvegicus; read-out: ED50.
In experiment [3] the test system is Rattus norvegicus. The experiment can be described thus: Effective dose was evaluated for drug discrimination in I-trained rats, when given at a dose of 0.5 mg/kg.
Experiment [4] has as its system Rattus norvegicus. Put plainly: Effective dose was evaluated for drug discrimination in I-trained rats, when given at a dose of 1.16 micro mol/kg.
Experiment [5] is filed under the species Rattus norvegicus. Put plainly: Compound was evaluated for the uptake inhibition of [3H]-5-HT in rats.
Experiment [6] has as its system Rattus norvegicus. The experiment can be described thus: Percentage of non disrupted rats that selected the drug lever, when given at a dose of 0.25 mg/kg.
Experiment [7] concerns Rattus norvegicus. Put plainly: Percentage of non disrupted rats that selected the drug lever, when given at a dose of 0.5 mg/kg.
Experiment [8] has as its system Rattus norvegicus. Put plainly: Percentage of non disrupted rats that selected the drug lever, when given at a dose of 1.50 mg/kg. Particulars: dose 1.5 mg/kg.
In experiment [9] the test system is Rattus norvegicus. Put plainly: Percentage of non disrupted rats that selected the drug lever, when given at a dose of 1.00 mg/kg.

Turning to `COc1cc(C[C@@H](C)N)ccc1C`, the 50% effective dose (ED50) – broadly, the midpoint of the dose-response relation – in the experiment on Rattus norvegicus [1] was determined as 2.12 µmol/kg; with Rattus norvegicus [2], 0.46 mg/kg; in the experiment on Rattus norvegicus [3], 0.46 mg/kg; in the experiment on Rattus norvegicus [4], 2.12 µmol/kg. Further, half-maximal inhibition in the experiment filed under Rattus norvegicus [5] (IC50) was put at 200 nM. For the same molecule, the SDL in the experiment on Rattus norvegicus [6] came to 33%; in the experiment with Rattus norvegicus [7], 38%; in the experiment on Rattus norvegicus [8], 100%; in the experiment with Rattus norvegicus [9] it was 75%.
